From ChEMBL document CHEMBL5338804 (J Med Chem, 2023)
In brackets after ≈: the same amount, converted by molar mass.

Columns and labels:
[1] = Permeability of the compound from apical to basolateral side in human Caco-2 cells at 3 uM incubated for 2 hrs by LC-MS/MS analysis; type: ADME, cell-based; settings: read-out: permeability
[2] = target: Mitogen-activated protein kinase 14 (Homo sapiens, UniProt Q16539); assay: Inhibition of MAPK p38-alpha (unknown origin)
[3] = target: MAP kinase-activated protein kinase 2 (Homo sapiens, UniProt P49137); assay: Inhibition of MK2 (unknown origin)
[4] = Thermodynamic aqueous solubility of the compound at pH 1 incubated for 18 to 24 hrs by HPLC-UV analysis; type: physicochemical; settings: aqueous medium, time 18-24 hrs, read-out: Therm_solubility
[5] = Ratio of unbound drug concentration in mouse brain to plasma at 10 uM incubated for 5 hrs by equilibrium dialysis method; type: ADME, cell-free; settings: read-out: K(p,uu,brain)
[6] = Volume of distribution at steady state in C57BL/6 mouse at 2 mg/kg, iv by LC-MS/MS analysis; type: ADME, organism-based; settings: in vivo, read-out: Vdss
[7] = target: Glycogen synthase kinase-3 (Homo sapiens, UniProt P49840+P49841); assay: Inhibition of GSK-3 in human U2OS cells transfected with beta-catenin GFP and 4R1N tau plasmid assessed as inhibition of Tau phosphorylation at Ser396 residues by high-content imaging assay; type: cell-based
[8] = Thermodynamic aqueous solubility of the compound at pH 7.4 incubated for 18 to 24 hrs by HPLC-UV analysis; type: physicochemical; settings: aqueous medium, time 18-24 hrs, read-out: Therm_solubility
[9] = Protein binding in mouse plasma assessed as unbound fraction at 10 uM incubated for 5 hrs by equilibrium dialysis method; type: ADME, cell-free
[10] = target: Ribosomal protein S6 kinase alpha-1 (Homo sapiens, UniProt Q15418); assay: Inhibition of RSK1 (unknown origin)
[11] = Permeability of the compound at 100 uM incubated for 4 hrs at pH 7.4 by PAMPA assay; type: ADME; settings: read-out: permeability
[12] = target: Interleukin-1 receptor-associated kinase 4 (Homo sapiens, UniProt Q9NWZ3); assay: Inhibition of IRAK4 (unknown origin)
[13] = target: Platelet-derived growth factor receptor beta (Homo sapiens, UniProt P09619); assay: Inhibition of PDGFR-beta (unknown origin)
[14] = Half life in C57BL/6 mouse at 2 mg/kg, iv by LC-MS/MS analysis; type: ADME, organism-based; settings: in vivo
[15] = Oral bioavailability in C57BL/6 mouse at 10 mg/kg by LC-MS/MS analysis; type: ADME, organism-based; settings: in vivo
[16] = target: Cyclin-dependent kinase 2 (Homo sapiens, UniProt P24941); assay: Inhibition of CDK2 (unknown origin)
[17] = target: Serine/threonine-protein kinase pim-1 (Homo sapiens, UniProt P11309); assay: Inhibition of PIM1 (unknown origin)
[18] = target: Cyclin-dependent kinase 5 (Homo sapiens, UniProt Q00535); assay: Inhibition of CDK5 (unknown origin)
[19] = target: AP2-associated protein kinase 1 (Homo sapiens, UniProt Q2M2I8); assay: Inhibition of AAK1 (unknown origin)
[20] = Clearance in C57BL/6 mouse at 2 mg/kg, iv by LC-MS/MS analysis; type: ADME, organism-based; settings: in vivo
[21] = Protein binding in human plasma assessed as unbound fraction at 10 uM incubated for 5 hrs by equilibrium dialysis method; type: ADME, cell-free
[22] = Permeability of the compound at 100 uM incubated for 4 hrs at pH 5.5 by PAMPA assay; type: ADME; settings: read-out: permeability
[23] = MRT in C57BL/6 mouse at 2 mg/kg, iv by LC-MS/MS analysis; type: ADME, organism-based; settings: in vivo
Aurora kinase A = Aurora kinase A (Mus musculus, UniProt P97477); assay: Inhibition of mouse Aurora kinase A
[24] = Permeability of the compound from basolateral to apical side in human Caco-2 cells at 3 uM incubated for 2 hrs by LC-MS/MS analysis; type: ADME, cell-based; settings: read-out: permeability
[25] = Cmax in C57BL/6 mouse at 10 mg/kg, po by LC-MS/MS analysis; type: ADME, organism-based; parameters: dose 10 mg/kg, route po; settings: in vivo
[26] = Protein binding in rat plasma assessed as unbound fraction at 10 uM incubated for 5 hrs by equilibrium dialysis method; type: ADME, cell-free
Mus musculus = assay: Anti-alzheimer activity against LaFerla 3x transgenic Alzheimer's disease C57BL/6 mouse model assessed as reduction in tau phosphorylation at Ser396 residue in brain at 10 mg/kg, po measured after 5 hrs by ELISA; type: functional
[27] = Metabolic stability in human liver microsomes assessed as parent compound remaining at 0.5 uM measured after 10 mins in presence of NADPH by LC-MS/MS analysis; type: ADME, Microsome; settings: read-out: Stability
[28] = target: Non-receptor tyrosine-protein kinase TYK2 (Homo sapiens, UniProt P29597); assay: Inhibition of TYK2 (unknown origin)
[29] = Metabolic stability in rat liver microsomes assessed as parent compound remaining at 0.5 uM measured after 10 mins in presence of NADPH by LC-MS/MS analysis; type: ADME, Microsome; settings: read-out: Stability
[30] = Drug uptake in brain of LaFerla 3x transgenic Alzheimer's disease C57BL/6 mouse model at 10 mg/kg, po measured after 5 hrs; type: ADME, organism-based; settings: read-out: Drug uptake
Aurora kinase B = Aurora kinase B (Homo sapiens, UniProt Q96GD4); assay: Inhibition of Aurora kinase B (unknown origin)
[31] = target: Tyrosine-protein kinase JAK1 (Homo sapiens, UniProt P23458); assay: Inhibition of JAK1 (unknown origin)
[32] = target: Mast/stem cell growth factor receptor Kit (Homo sapiens, UniProt P10721); assay: Inhibition of c-Kit (unknown origin)
[33] = Metabolic stability in mouse liver microsomes assessed as parent compound remaining at 0.5 uM measured after 10 mins in presence of NADPH by LC-MS/MS analysis; type: ADME, Microsome; settings: read-out: Stability
[34] = target: Casein kinase I isoform alpha (Homo sapiens, UniProt P48729); assay: Inhibition of CK1A1 (unknown origin)
[35] = AUC (total) in C57BL/6 mouse at 10 mg/kg, po by LC-MS/MS analysis; type: ADME, organism-based; parameters: dose 10 mg/kg, route po; settings: in vivo
[36] = target: Casein kinase II subunit alpha' (Homo sapiens, UniProt P19784); assay: Inhibition of CK2A2 (unknown origin)
[37] = target: Interleukin-1 receptor-associated kinase 1 (Homo sapiens, UniProt P51617); assay: Inhibition of IRAK1 (unknown origin)
[38] = target: Tyrosine-protein kinase JAK2 (Homo sapiens, UniProt O60674); assay: Inhibition of JAK2 (unknown origin)
[39] = Plasma concentration in LaFerla 3x transgenic Alzheimer's disease C57BL/6 mouse model at 10 mg/kg, po measured after 5 hrs; type: ADME, organism-based
[40] = Ratio of drug concentration in brain to plasma in LaFerla 3x transgenic Alzheimer's disease C57BL/6 mouse model at 10 mg/kg, po measured after 5 hrs; type: ADME, organism-based; settings: read-out: BPR
[41] = Protein binding in mouse brain assessed as unbound fraction at 1 uM incubated for 4 hrs by LC-MS analysis; type: ADME, tissue-based
[42] = target: Protein kinase C theta type (Homo sapiens, UniProt Q04759); assay: Inhibition of PKC theta (unknown origin)
[43] = target: Tyrosine-protein kinase Lck (Homo sapiens, UniProt P06239); assay: Inhibition of LCK (unknown origin)
[44] = target: Tyrosine-protein kinase SYK (Homo sapiens, UniProt P43405); assay: Inhibition of SYK (unknown origin)
[45] = target: Tyrosine-protein kinase BTK (Homo sapiens, UniProt Q06187); assay: Inhibition of BTK (unknown origin)
[46] = target: Glycogen synthase kinase-3 alpha (Homo sapiens, UniProt P49840); assay: Displacement of FL-KRREILSRRP[ps]ERYR-NH2 from human recombinant full length GST-tagged GSK-3-alpha expressed in insect cells incubated for 20 hrs by fluorescence based analysis; parameters: species or system Insect cell
[47] = target: Casein kinase II subunit alpha (Homo sapiens, UniProt P68400); assay: Inhibition of CK2A1 (unknown origin)
[48] = target: Glycogen synthase kinase-3 beta (Homo sapiens, UniProt P49841, H355L); assay: Displacement of FL-KRREILSRRP[ps]ERYR-NH2 from human recombinant N-terminal His6-tagged GSK-3-beta (14 to 306 residues) H355L mutant expressed in baculovirus-infected Sf21 cells incubated for 20 hrs by fluorescence based analysis
[49] = target: Insulin-like growth factor 1 receptor (Homo sapiens, UniProt P08069); assay: Inhibition of IGF1R (unknown origin)

Sequence of Casein kinase II subunit alpha' (P19784 whole entry): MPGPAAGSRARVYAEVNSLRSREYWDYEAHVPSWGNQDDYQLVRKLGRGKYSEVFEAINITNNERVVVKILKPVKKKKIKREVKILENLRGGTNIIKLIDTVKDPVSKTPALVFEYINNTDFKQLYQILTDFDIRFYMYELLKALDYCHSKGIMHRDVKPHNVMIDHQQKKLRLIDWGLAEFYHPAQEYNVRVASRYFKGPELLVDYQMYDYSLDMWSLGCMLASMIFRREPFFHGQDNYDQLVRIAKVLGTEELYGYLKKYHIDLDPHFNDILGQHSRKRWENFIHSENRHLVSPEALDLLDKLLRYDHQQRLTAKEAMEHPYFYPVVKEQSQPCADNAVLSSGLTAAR
Sequence of Mitogen-activated protein kinase 14 (Q16539 whole entry): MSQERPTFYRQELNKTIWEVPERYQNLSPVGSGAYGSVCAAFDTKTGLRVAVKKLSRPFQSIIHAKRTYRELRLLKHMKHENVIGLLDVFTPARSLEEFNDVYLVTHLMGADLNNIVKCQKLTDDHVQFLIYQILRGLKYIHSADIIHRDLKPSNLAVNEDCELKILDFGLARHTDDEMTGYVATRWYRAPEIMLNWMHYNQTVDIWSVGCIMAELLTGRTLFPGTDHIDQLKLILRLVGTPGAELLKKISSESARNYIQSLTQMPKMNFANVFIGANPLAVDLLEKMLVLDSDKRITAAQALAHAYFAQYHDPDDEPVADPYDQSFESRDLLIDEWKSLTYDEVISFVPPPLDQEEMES
Sequence of Casein kinase I isoform alpha (P48729 whole entry, canonical isoform): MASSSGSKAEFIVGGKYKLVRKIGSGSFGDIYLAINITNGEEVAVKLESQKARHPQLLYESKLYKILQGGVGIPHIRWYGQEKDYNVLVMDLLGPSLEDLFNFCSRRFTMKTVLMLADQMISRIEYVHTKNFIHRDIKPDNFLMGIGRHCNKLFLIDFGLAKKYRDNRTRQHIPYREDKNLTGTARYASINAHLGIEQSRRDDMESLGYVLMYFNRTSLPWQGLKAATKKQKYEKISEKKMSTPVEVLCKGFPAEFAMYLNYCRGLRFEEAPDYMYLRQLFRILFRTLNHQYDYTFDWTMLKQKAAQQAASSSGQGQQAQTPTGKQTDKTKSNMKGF
Sequence of Serine/threonine-protein kinase pim-1 (P11309 whole entry): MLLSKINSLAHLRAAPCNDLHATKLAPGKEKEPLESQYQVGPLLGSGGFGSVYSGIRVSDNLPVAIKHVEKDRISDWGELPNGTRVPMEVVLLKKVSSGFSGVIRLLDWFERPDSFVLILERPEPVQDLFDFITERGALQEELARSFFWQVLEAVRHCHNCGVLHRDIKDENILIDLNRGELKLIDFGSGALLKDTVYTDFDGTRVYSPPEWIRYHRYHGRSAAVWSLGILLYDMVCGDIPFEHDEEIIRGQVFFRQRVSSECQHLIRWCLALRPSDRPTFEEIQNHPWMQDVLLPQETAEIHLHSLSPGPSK
Sequence of Interleukin-1 receptor-associated kinase 1 (P51617 whole entry): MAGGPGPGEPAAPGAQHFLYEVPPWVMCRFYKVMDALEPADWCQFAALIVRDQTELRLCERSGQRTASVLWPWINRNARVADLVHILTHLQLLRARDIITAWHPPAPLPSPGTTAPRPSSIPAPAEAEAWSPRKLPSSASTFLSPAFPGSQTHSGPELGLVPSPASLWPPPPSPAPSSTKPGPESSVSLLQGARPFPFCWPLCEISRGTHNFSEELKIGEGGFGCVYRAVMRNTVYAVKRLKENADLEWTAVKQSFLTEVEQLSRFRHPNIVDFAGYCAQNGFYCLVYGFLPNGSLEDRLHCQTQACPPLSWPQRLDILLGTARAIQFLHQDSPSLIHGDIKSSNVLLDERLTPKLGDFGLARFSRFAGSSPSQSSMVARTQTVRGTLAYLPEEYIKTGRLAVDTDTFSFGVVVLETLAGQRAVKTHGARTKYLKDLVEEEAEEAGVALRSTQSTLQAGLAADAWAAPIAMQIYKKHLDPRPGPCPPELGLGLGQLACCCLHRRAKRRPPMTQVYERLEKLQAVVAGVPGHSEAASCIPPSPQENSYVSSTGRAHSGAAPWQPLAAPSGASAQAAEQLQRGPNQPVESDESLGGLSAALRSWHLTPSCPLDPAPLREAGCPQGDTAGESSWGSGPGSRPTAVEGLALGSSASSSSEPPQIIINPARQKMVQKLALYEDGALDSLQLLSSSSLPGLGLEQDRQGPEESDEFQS
Sequence of Platelet-derived growth factor receptor beta (P09619 whole entry): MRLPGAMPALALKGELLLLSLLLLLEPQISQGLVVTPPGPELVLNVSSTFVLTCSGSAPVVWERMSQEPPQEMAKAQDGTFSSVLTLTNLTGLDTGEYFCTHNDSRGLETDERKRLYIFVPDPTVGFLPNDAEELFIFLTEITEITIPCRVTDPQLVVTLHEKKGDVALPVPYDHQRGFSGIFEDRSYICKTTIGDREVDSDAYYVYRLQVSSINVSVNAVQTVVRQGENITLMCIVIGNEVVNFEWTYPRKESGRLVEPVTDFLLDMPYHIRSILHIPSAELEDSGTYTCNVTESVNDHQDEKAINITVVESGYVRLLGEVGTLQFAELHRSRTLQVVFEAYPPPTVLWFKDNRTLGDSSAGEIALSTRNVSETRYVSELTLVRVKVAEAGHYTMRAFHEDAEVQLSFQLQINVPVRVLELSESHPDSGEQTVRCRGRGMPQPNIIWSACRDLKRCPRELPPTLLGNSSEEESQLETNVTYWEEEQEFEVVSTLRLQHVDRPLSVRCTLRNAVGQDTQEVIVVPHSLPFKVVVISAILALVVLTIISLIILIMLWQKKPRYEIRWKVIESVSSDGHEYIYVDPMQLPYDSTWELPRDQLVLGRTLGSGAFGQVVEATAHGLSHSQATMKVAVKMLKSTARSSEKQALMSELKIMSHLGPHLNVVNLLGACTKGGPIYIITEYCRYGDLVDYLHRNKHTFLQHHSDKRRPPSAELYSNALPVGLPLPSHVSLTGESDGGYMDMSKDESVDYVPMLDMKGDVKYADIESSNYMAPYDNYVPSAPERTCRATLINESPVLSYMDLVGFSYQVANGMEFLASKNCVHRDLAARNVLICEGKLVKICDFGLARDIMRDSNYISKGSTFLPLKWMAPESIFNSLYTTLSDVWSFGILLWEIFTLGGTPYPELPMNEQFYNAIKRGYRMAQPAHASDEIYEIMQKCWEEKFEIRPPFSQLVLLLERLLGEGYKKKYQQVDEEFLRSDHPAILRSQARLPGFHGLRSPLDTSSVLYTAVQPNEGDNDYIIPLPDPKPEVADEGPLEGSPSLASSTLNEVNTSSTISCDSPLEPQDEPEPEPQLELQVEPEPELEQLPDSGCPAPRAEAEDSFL
Sequence of Mast/stem cell growth factor receptor Kit (P10721 whole entry): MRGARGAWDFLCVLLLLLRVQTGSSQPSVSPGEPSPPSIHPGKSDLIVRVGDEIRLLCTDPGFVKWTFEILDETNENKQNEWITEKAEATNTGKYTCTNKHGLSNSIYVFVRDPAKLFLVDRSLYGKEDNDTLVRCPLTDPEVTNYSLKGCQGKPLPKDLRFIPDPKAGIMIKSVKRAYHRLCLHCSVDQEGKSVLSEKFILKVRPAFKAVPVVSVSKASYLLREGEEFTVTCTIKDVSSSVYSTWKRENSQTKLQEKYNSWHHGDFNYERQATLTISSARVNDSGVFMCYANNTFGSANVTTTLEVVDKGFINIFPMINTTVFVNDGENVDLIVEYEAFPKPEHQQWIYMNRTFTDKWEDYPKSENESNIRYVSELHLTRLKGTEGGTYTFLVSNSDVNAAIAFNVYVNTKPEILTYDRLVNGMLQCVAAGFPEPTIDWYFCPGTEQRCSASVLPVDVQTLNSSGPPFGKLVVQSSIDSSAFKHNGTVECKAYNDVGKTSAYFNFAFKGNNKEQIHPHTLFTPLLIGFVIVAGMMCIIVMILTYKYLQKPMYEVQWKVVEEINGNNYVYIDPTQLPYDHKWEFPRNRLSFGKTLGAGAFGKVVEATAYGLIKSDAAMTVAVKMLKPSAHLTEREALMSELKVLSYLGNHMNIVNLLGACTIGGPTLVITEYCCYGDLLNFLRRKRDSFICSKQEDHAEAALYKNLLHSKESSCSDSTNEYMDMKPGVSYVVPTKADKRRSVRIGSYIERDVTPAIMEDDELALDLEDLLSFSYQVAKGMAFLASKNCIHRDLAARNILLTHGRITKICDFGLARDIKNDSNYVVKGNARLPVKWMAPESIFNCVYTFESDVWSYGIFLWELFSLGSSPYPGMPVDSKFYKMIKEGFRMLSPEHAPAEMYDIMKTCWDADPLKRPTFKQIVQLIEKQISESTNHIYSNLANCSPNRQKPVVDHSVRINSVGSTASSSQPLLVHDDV
Sequence of Glycogen synthase kinase-3 beta (P49841 whole entry, looked up, stated change not applied, the tested form may be a part): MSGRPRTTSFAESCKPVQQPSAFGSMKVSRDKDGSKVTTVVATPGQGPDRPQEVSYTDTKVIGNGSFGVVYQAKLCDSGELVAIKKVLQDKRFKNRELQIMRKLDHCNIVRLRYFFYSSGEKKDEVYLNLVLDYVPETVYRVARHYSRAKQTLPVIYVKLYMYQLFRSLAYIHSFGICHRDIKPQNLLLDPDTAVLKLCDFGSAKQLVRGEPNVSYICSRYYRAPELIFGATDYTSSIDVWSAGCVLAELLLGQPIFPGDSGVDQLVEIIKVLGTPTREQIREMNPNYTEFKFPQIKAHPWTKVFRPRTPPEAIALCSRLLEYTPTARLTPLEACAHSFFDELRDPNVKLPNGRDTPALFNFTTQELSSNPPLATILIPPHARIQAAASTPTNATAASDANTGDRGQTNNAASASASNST
Sequence of Aurora kinase B (Q96GD4 whole entry): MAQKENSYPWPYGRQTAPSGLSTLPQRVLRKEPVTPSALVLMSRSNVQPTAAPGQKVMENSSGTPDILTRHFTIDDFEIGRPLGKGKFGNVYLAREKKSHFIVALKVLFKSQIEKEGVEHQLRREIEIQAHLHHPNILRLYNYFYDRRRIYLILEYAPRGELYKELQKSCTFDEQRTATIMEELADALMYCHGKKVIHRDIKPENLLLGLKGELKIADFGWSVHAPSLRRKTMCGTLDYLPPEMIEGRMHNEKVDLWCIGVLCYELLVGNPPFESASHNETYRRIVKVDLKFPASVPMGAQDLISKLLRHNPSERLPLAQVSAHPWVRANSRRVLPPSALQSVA

N#Cc1ccc(Nc2nccc(C(=O)Nc3cnccc3-c3ccc(F)cc3)n2)cc1
Papp A→B at 2 h, 3 µM [1]: 24.4 ×10⁻⁶ cm/s
IC50 [2]: 23 µM
IC50 [3]: > 50 µM
solubility thermodynamic [4]: 16 µg/mL (≈ 39 µM)
Kp uu at 5 h, 10 µM [5]: 0.4
Vd [6]: 5.4 L/kg
IC50 [7]: 0.01 µM
solubility thermodynamic [8]: < 1 µg/mL
fraction unbound at 5 h, 10 µM [9]: 0.03
IC50 [10]: > 50 µM
Papp at 4 h, 100 µM [11]: 84 ×10⁻⁶ cm/s
IC50 [12]: > 50 µM
IC50 [13]: 37 µM
half-life [14]: 2.5 h
bioavailability [15]: 100%
IC50 [16]: 0.22 µM
IC50 [17]: 0.72 µM
IC50 [18]: 1.3 µM
IC50 [19]: > 2 µM
clearance [20]: 23.3 mL/min/kg
fraction unbound at 5 h, 10 µM [21]: 0.011
Papp at 4 h, 100 µM [22]: 121 ×10⁻⁶ cm/s
MRT [23]: 3.9 h
IC50 (Aurora kinase A): 17 µM
Papp B→A at 2 h, 3 µM [24]: 9.8 ×10⁻⁶ cm/s
Cmax [25]: 3500 nM
fraction unbound at 5 h, 10 µM [26]: 0.019
inhibition in vivo at 10 mg/kg (Mus musculus): 33%
remaining at 10 min, 0.5 µM [27]: 79%
IC50 [28]: > 50 µM
remaining at 10 min, 0.5 µM [29]: 66%
concentration at 5 h [30]: 370 nM
IC50 (Aurora kinase B): 11 µM
IC50 [31]: 31 µM
IC50 [32]: 5.6 µM
remaining at 10 min, 0.5 µM [33]: 66%
IC50 [34]: > 2 µM
AUC [35]: 24.3 µM·h
IC50 [36]: > 2 µM
IC50 [37]: > 2 µM
IC50 [38]: 13 µM
concentration at 5 h [39]: 410 nM
Kp at 5 h [40]: 0.9
fraction unbound at 4 h, 1 µM [41]: 0.012
IC50 [42]: 17 µM
IC50 [43]: > 2 µM
IC50 [44]: > 50 µM
IC50 [45]: 13 µM
IC50 [46]: 0.00025 µM
IC50 [47]: > 50 µM
IC50 [48]: 0.00035 µM
IC50 [49]: 17 µM

O=C(Nc1cnccc1-c1ccc(F)cc1)c1ccnc(Nc2ccc(F)cc2)n1
Papp A→B at 2 h, 3 µM [1]: 11.8 ×10⁻⁶ cm/s
IC50 [2]: > 50 µM
IC50 [3]: > 27 µM
solubility thermodynamic [4]: 31 µg/mL (≈ 76.8 µM)
Kp uu at 5 h, 10 µM [5]: 0.4
Vd [6]: 2.6 L/kg
IC50 [7]: 0.034 µM
solubility thermodynamic [8]: 1 µg/mL (≈ 2.48 µM)
fraction unbound at 5 h, 10 µM [9]: 0.008
IC50 [10]: > 50 µM
Papp at 4 h, 100 µM [11]: 59 ×10⁻⁶ cm/s
IC50 [12]: > 23 µM
IC50 [13]: > 50 µM
half-life [14]: 2.8 h
bioavailability [15]: 53%
IC50 [16]: 0.47 µM
IC50 [17]: 1.4 µM
IC50 [18]: 0.68 µM
IC50 [19]: > 2 µM
clearance [20]: 18.9 mL/min/kg
fraction unbound at 5 h, 10 µM [21]: 0.002
Papp at 4 h, 100 µM [22]: 62 ×10⁻⁶ cm/s
MRT [23]: 2.3 h
IC50 (Aurora kinase A): > 50 µM
Papp B→A at 2 h, 3 µM [24]: 4.4 ×10⁻⁶ cm/s
Cmax [25]: 1500 nM
fraction unbound at 5 h, 10 µM [26]: 0.007
remaining at 10 min, 0.5 µM [27]: 67%
IC50 [28]: 17 µM
remaining at 10 min, 0.5 µM [29]: 10%
concentration at 5 h [30]: 180 nM
IC50 (Aurora kinase B): 11 µM
IC50 [31]: > 50 µM
IC50 [32]: > 2 µM
remaining at 10 min, 0.5 µM [33]: 54%
IC50 [34]: > 2 µM
AUC [35]: 11.7 µM·h
IC50 [36]: > 2 µM
IC50 [37]: > 2 µM
IC50 [38]: 14 µM
concentration at 5 h [39]: 180 nM
Kp at 5 h [40]: 1
fraction unbound at 4 h, 1 µM [41]: 0.003
IC50 [42]: 10.4 µM
IC50 [43]: > 2 µM
IC50 [44]: 16 µM
IC50 [45]: > 50 µM
IC50 [46]: 0.00045 µM
IC50 [47]: > 50 µM
IC50 [48]: 0.00056 µM
